Columns and labels:
A549 cell line = assay: Fluorescence in situ hybridization (FISH) of small RNA; assay type: cell-based, human; details: FIG. 12
Experimental: 3.3.3 Fluorescence in Situ Hybridization (FISH) of Small RNA
2) Fix in 4% paraformaldehyde (500 μl/well, prepared in PBS buffer) at room temperature for 20 min.
4) PBS was removed, and cells were permeabilized with PK (proteinase K) buffer at room temperature for 10 min.
9) The culture plate was placed in a hybridization cassette in hybridization buffer (50% formamide, 5×SSC, 5×Denharts, 250 μg/mL yeast RNA, 500 μg/mL herring sperm DNA) and pre-incubated at room temperature for 1 hour.
10) Add RNA probes (HJT-sRNA-m7 probe: 5′-[…]-3′ (SEQ ID NO: 27), Scrambled probe: 5′-[…]-3′ (SEQ ID NO: 28), U6 probe: 5′-TTTGCGTGTCATCCTTGCG-3′ (SEQ ID NO: 29)) to the hybridization buffer (the concentration of RNA probes was 0.1-0.2 ng/μl), denature at 85° C. for 5 min, and quickly place it on ice. […]
Mixtures of soybean PC, lipid No. 11 (18:0/18:2) and lipid No. 12 (16:0/18:2), and various small RNA(see below Table 3) were prepared by the reverse evaporation method and then added into A549 cell line (the final concentration of sRNA was 200 nM); the negative control group (control) was directly added with the same concentration of sRNA; the positive control group (RNAimax) was transfected with Lipofectamine RNAimax (transfection reagent 6 μ/well). The abundance of sRNA in the cells was detected by Taqman probe after 3 hours, and the relative expression level of sRNA was calculated by 2-ΔCt method.

MRC-5 cells = assay: Western blot of fibronectin/α-SMA after lipid-mediated delivery of anti-fibrotic HJT-sRNA, TGF-β1 stimulation; assay type: cell-based; details: FIG. 102; nucleic acid 400 nM; TGF-β1 3 ng/mL, 72 hours
Experimental: (§1) 3.3 Western blot detection of protein expression levels 3.3.1 MRC-5 cell (pulmonary embryonic fibroblast), and A549 cell (human lung adenocarcinoma cell) were cultured to logarithmic growth phase, and then plated into 12-well plates at a cell density of 6×10^5/1 mL medium/well; MRC-5 cells were cultured in Eagle's MEM medium (MEM, Gibco); A549 cells were cultured in Ham's F-12 medium (HyClone); followed by incubation overnight at 37° C., and the follow-up experiments were performed after the cells were attached to the walls.
(§2) 4) Lipid nucleic acid mixture: the mixture of lipid and nucleic acid prepared from the step 2 were added into cells and mixed, and the final concentration of nucleic acid was 400 nM.
(§3) 3.3.3 After 24 hours of treatment, the cells were stimulated with the stimulant (1 μg/mL poly (I:C) (P1530, Sigma-Aldrich) as double-stranded RNA viruses mimetics) or 3 ng/mL transforming growth factor TGF(31 (Pepro Tech)). […]

[1] = In vivo intragastric delivery of small RNA with lipid No. 41, samples after 6 hours; design: species or system mice; details: each small RNA 1 nmol/animal
Experimental: [Experimental method] 6-8 weeks old mice, 22-24 g, were raised in SPF room of the Animal Center of the Institute of Basic Medical Sciences of Chinese Academy of Medical Sciences. The mice were fasted for 12 hours before intragastric administration. The mice were randomly divided into 3 groups: (1) control group, 400 μl DEPC-treated water, intragastric administration; (2) free uptake group, small RNA (PGY-sRNA-26, PGY-sRNA-32 and PGY-sRNA-23), each small RNA 1 nmol/animal, dissolved in 400 μl DEPC-treated water, intragastric administration; (3) lipid No. 41 group: a mixture of small RNA (PGY-sRNA-26 and PGY-sRNA-32) and lipid No. 41 prepared by heating method was intragastrically administered, each small RNA 1 nmol/animal, lipid No. 41 10 μl/animal, dissolved in 400 μl DEPC-treated water. All tissue and organ samples were collected after 6 hours of intragastric administration. All small RNAs were single-stranded RNA modified by 3p- terminal 2-O-methylation.

A549 cells = assay: Western blot of knockdown protein after lipid-mediated siRNA delivery; assay type: cell-based, human; details: FIG. 82; reverse evaporation method; LAMP2, XPN2, Ssu72, CPSF4 or β-actin siRNA 400 nM
Experimental: as §1, §2, §3

SMILES: CCCCC/C=C\C/C=C\CCCCCCCC(=O)O[C@H](COC(=O)CCCCCCCCCCCCCCCCC)COP(=O)([O-])OCC[N+](C)(C)C [No. 11, trimethyl(2-{[(2R)-2-[(9Z, 12Z)-octadeca-9,12-dienoyloxy]-3-(octadecanoyloxy)propyl-phosphonato]oxy}ethyl) azanium]
- localization of delivered nucleic acid (FISH) (A549 cell line): entered into cytoplasm and were primarily localized in cytoplasm

SMILES: CCCCC/C=C\C/C=C\CCCCCCCC(=O)O[C@H](COC(=O)CCCCCCCCCCCCCCC)COP(=O)([O-])OCC[N+](C)(C)C [No. 12, (2-{[(2R)-3-(hexadecanoyloxy)-2-[(9Z,12Z)-octadeca-9,12-dienoyloxy]propylphosphonato]oxy}ethyl) trimethylazanium]
- localization of delivered nucleic acid (FISH) (A549 cell line): entered into cytoplasm and were primarily localized in cytoplasm

SMILES: CCCCCCCC/C=C\CCCCCCCCCCCC(=O)O[C@H](COC(=O)CCCCCCCCCCCCCCC)COP(=O)(O)OCCN [No. 40, (2-aminoethoxy) [(2R)-2-[(13Z)-docos-13-enoyloxy]-3-(hexadecanoyloxy)propoxy] phosphinic acid]
- fibronectin protein expression after delivery of double-stranded HJT-sRNA-m7 (Western blot) (MRC-5 cells): mediated anti-fibrotic double-stranded RNA HJT-sRNA-m7 entry into MRC-5 cells to down-regulate fibronectin protein expression

SMILES: CCCCCCCCCCCCCCCCCCC[C@@H](O)[C@@H](N)CO [No. 41, Sphinganine (d22:0)]
- entry of small RNA into the blood ([1]; FIG. 108, lipid 10 μl/animal): could promote the entry of small RNA into the blood, protecting it from degradation in the blood
- entry of small RNA into the stomach cells ([1]; FIG. 109, lipid 10 μl/animal): could promote the entry of small RNA into the stomach cells, protecting it from degradation in the stomach
- entry of small RNA into small intestinal cells ([1]; FIG. 110, lipid 10 μl/animal): could promote the entry of small RNA into small intestinal cells, protecting it from degradation in the small intestine
- entry of small RNA into the liver ([1]; FIG. 111, lipid 10 μl/animal): could promote the entry of small RNA into the liver, protecting it from degradation in the liver
- protein knockdown effect of delivered siRNA vs RNAiMAX (Western blot) (A549 cells): significantly higher than the inhibitory effect of HJT-sRNA-m7 mediated by RNAiMAX

Reference: patent publication US20210100905A1, “APPLICATION OF COMPOUND OR TRADITIONAL CHINESE MEDICINE EXTRACT IN PREPARATION OF NUCLEIC ACID DELIVERY AGENT, AND RELATED PRODUCTS” (INSTITUTE OF BASIC MEDICAL SCIENCES CHINESE ACADEMY OF …, priority 2018, published 2021)
